For one experiment, the system named is Spodoptera frugiperda. Put plainly: Spodoptera frugiperda spray test (maize leaf sections). Format: in vivo. Conditions: 144 h, after 6 d, read-out: Efficacy in % after 6 d (mortality). How it is done:
Solvent: 78.0 parts by weight acetone
• 1.5 parts by weight dimethylformamide Emulsifier: 0.5 parts by weight alkylarylpolyglycolether
To produce a suitable preparation of the active compound, 1 part by weight of active compound is mixed with the stated amount of solvent and emulsifier, and the concentrate is diluted with emulsifier-containing water to the desired concentration. To produce a suitable preparation of a spore suspension the spores are diluted with emulsifier—containing water to the desired concentration.
Maize (Zea mais) leaf sections are sprayed with a preparation of the active ingredient of the desired concentration. Once dry, the leaf sections are infested with fall armyworm larvae (Spodoptera frugiperda).
After the specified period of time, mortality in % is determined. 100% means all caterpillars have been killed and 0% means none of the caterpillars have been killed. The mortality values determined thus are recalculated using the Colby-formula (see sheet 1).

The test system of the next experiment is Phaedon cochleariae. Put plainly: Phaedon cochleariae spray test (Chinese cabbage leaf disks). Format: in vivo. Conditions: foliar, 144 h, after 6 d, read-out: Efficacy in % after 6 d (mortality). The procedure: Solvent: 78.0 parts by weight of acetone
• 1.5 parts by weight of dimethylformamide Emulsifier: 0.5 parts by weight of alkylaryl polyglycolether
To produce a suitable preparation of active compound, 1 part by weight of active compound is mixed with the stated amount of solvent and emulsifier, and the concentrate is diluted with emulsifier—containing water to the desired concentration. To produce a suitable preparation of a spore suspension the spores are diluted with emulsifier—containing water to the desired concentration.
Chinese cabbage (Brassica pekinensis) leaf-disks are sprayed with a preparation of the active ingredient of the desired concentration. Once dry, the leaf disks are infested with mustard beetle larvae (Phaedon cochleariae).
After the specified period of time, mortality in % is determined. 100% means all beetle larvae have been killed and 0% means none of the beetle larvae have been killed. The mortality values determined thus are recalculated using the Colby-formula (see sheet 1).

As to `Cc1cc(C(F)(C(F)(F)F)C(F)(F)F)ccc1NC(=O)c1cccc(Cl)c1C(=O)NC(C)(C)C#N` [(I-5)], the mortality at 0.25 g/ha in the experiment with Spodoptera frugiperda (0.25 g ai/ha) stood at 0%. Moreover, in the experiment with Spodoptera frugiperda (0.8 g ai/ha), the mortality at 0.8 g/ha stood at 33%. Besides, in the experiment with Spodoptera frugiperda (3 g ai/ha), the mortality at 3 g/ha came to 33%. Also, the mortality at 2.5 g/ha in the experiment on Phaedon cochleariae (2.5 g ai/ha) was 0%. The mortality at 12 g/ha in the experiment with Phaedon cochleariae (12 g ai/ha) stood at 0%.

By mortality is commonly meant the share of the test organisms that died.
